Common to all, as to test: growth of human tumour cells (NCI), 48 h
Experiment [1] deals with A549.
Experiment [2] concerns COLO 205.
The subject of experiment [3] is EKVX.
Experiment [4] relates to HCC 2998.
The subject of experiment [5] is HCT-15.
Experiment [6] concerns HOP-92.
For experiment [7], the system named is Hs-578T.
Experiment [8] concerns KM12.
The test system of experiment [9] is MCF7.
The subject of experiment [10] is MDA-N.
For experiment [11], the system named is NCI-H522.
The subject of experiment [12] is RPMI-8226.
The subject of experiment [13] is SF-268.
The test system of experiment [14] is SF-539.
Experiment [15] has as its system SK-MEL-2.
The subject of experiment [16] is SK-MEL-5.
Experiment [17] concerns SNB-19.
For experiment [18], the system named is UACC-257.
The test system of experiment [19] is ACHN.

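The compound was tested at five concentrations on cells cultured in 96-well plates, with a 48-hour exposure period. Abbreviation: GI50, concentration required for 50% inhibition of growth.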 Active and inactive are the calls of the source. No stated cut-off is given here; in the data, active = GI50 up to about 1.1 µM and inactive = higher.

On to `COc1ccc(/N=c2/[nH]c(N)c(C(=O)c3ccc(OC)cc3)s2)cc1`, for which the GI50 in [1] is 0.59 µM (active); in [2], 0.279 µM (active); in [3] it was 17.3 µM (inactive); in [4] it was 0.755 µM (active); in [5], 0.412 µM; in experiment [6], 25.1 µM (inactive). Besides, the GI50 is 0.277 µM (active) in experiment [7]; 0.378 µM (active) in [8]; 3.23 µM (inactive) in experiment [9]; 0.0301 µM (active) in experiment [10]; 0.127 µM (active) in experiment [11]; 0.164 µM (active) in experiment [12]. Further, the GI50 was 12.9 µM (inactive) in experiment [13]; 0.313 µM (active) in [14]; 0.288 µM (active) in [15]; 0.381 µM (active) in experiment [16]; 0.474 µM (active) in experiment [17]; > 100 µM (inactive) in [18].

`O=S1(=O)c2ccccc2-c2nccc3ccnc1c23`: the GI50 in experiment [19] is 8.57 µM (inactive); in experiment [2], 3.99 µM (inactive); in experiment [3], 15.4 µM (inactive); in experiment [4] it was 12.8 µM (inactive); in [5] it was 7.87 µM; in experiment [6], 24.3 µM (inactive). The GI50 was 32.1 µM (inactive) in experiment [7]; 22.8 µM (inactive) in experiment [8]; 6.4 µM (inactive) in [9]; 7.87 µM (inactive) in [10]; 8.07 µM (inactive) in experiment [11]; 16.2 µM (inactive) in [12]. In addition, the GI50 in experiment [13] is 23.5 µM (inactive); in experiment [14], 8.57 µM (inactive); in [15] it was 28.7 µM (inactive); in [16], 4.82 µM (inactive); in experiment [17], 23.2 µM (inactive); in [18] it was 28.5 µM (inactive).

For `C/C(=N\NC(=S)NCCCNC(=S)N/N=C(\C)c1ccccn1)c1ccccn1`, the GI50 in experiment [1] was 3.48 µM (inactive); in experiment [19], 1.4 µM (inactive); in experiment [2] it was 1.8 µM (inactive); in experiment [3], 3.79 µM (inactive); in experiment [4], 5.71 µM (inactive); in experiment [5] it was 1.3 µM. The GI50 in experiment [6] was 6.73 µM (inactive); in experiment [7], > 47.6 µM (inactive); in [8] it was 2.94 µM (inactive); in experiment [9] it was 3.34 µM (inactive); in experiment [10], 9.27 µM (inactive); in experiment [11], 1.37 µM (inactive). The GI50 in experiment [12] was 4.2 µM (inactive); in experiment [13] it was 2.62 µM (inactive); in experiment [14], 2.42 µM (inactive); in experiment [15], 2.06 µM (inactive); in experiment [16] it was 2.02 µM (inactive); in experiment [17], > 34.8 µM (inactive). Moreover, the GI50 in experiment [18] is 2.75 µM (inactive).

For `Cc1ccc(C2SC(=N)Nc3c2c(C)nn3C(=O)c2ccc(Cl)cc2)cc1` (stereo not drawn), the GI50 is > 10 µM (inactive) in [1]; > 10 µM (inactive) in experiment [19]; > 10 µM (inactive) in experiment [2]; > 10 µM (inactive) in [3]; > 10 µM (inactive) in experiment [4]; more than 10 µM in [5]. The GI50 in experiment [6], in experiment [7], in experiment [8], in experiment [9], in experiment [10] and in experiment [11] was > 10 µM (inactive) in each case. For the same compound, the GI50 in experiment [12], in [13], in [14], in experiment [15], in [16] and in [17] was > 10 µM (inactive) each time. Also, the GI50 in [18] was > 10 µM (inactive).

For `O=C1CSC(=S)N1c1ccc(F)cc1F`, the GI50 in [1] is 61.9 µM (inactive); in [19] it was 53.7 µM (inactive); in [2], 46.2 µM (inactive); in experiment [3], 94.8 µM (inactive); in [4], 34.8 µM (inactive); in experiment [5], 36.2 µM. Further, the GI50 was 30.2 µM (inactive) in experiment [6]; 41.3 µM (inactive) in [7]; > 100 µM (inactive) in experiment [8]; 21.7 µM (inactive) in [9]; 36.3 µM (inactive) in experiment [10]; 18 µM (inactive) in experiment [11]. Further, the GI50 in experiment [12] is 24.4 µM (inactive); in experiment [13] it was 44.6 µM (inactive); in [14] it was 38.7 µM (inactive); in experiment [15], 61.2 µM (inactive); in experiment [16], 25.4 µM (inactive); in experiment [17], 76.6 µM (inactive). Moreover, the GI50 in experiment [18] is 43.8 µM (inactive).

Regarding `c1ccc(C[N+]23CN4CN(CN(C4)C2)C3)cc1`, the GI50 in experiment [1] is 29.2 µM (inactive); in [19] it was 29.3 µM (inactive); in experiment [2] it was 18.5 µM (inactive); in experiment [3], > 100 µM (inactive); in [4], 20.4 µM (inactive); in [5], 31.4 µM. The GI50 is 36.1 µM (inactive) in experiment [6]; > 100 µM (inactive) in experiment [7]; 33.2 µM (inactive) in experiment [8]; 30.1 µM (inactive) in experiment [9]; 94.4 µM (inactive) in [10]; > 100 µM (inactive) in experiment [11]. The GI50 is 22.5 µM (inactive) in experiment [12]; 29.3 µM (inactive) in [13]; 28.6 µM (inactive) in [14]; 17 µM (inactive) in [15]; 23.9 µM (inactive) in experiment [16]; 26.4 µM (inactive) in experiment [17]. Moreover, the GI50 in experiment [18] is 37.4 µM (inactive).

On to `CC[C@@]1(O)C(=O)OCc2c1cc1n(c2=O)Cc2c-1nc1ccccc1c2/C=N/NC(=O)c1ccc(N)cc1`, for which the GI50 in experiment [1] was 0.578 µM (active); in [19], 0.0244 µM (active); in experiment [2] it was 4.53 µM (inactive); in [4], 1.12 µM (inactive); in experiment [5], 2.95 µM; in experiment [6] it was 0.0447 µM (active). The GI50 was > 100 µM (inactive) in experiment [7]; 9.4 µM (inactive) in experiment [8]; < 0.016 µM (active) in experiment [9]; 0.434 µM (active) in experiment [10]; < 0.0405 µM (active) in [11]; 1.52 µM (inactive) in [12]. The GI50 was < 0.01 µM (active) in experiment [13]; < 0.01 µM (active) in [14]; 5.37 µM (inactive) in [15]; 0.136 µM (active) in experiment [16]; 0.0175 µM (active) in experiment [17]; 6.44 µM (inactive) in experiment [18].

With `O=S1OC[C@H](CCCl)O1` (stereo partly drawn), the GI50 in experiment [1] is > 100 µM (inactive); in experiment [19], > 100 µM (inactive); in [2] it was > 100 µM (inactive); in [3], > 100 µM (inactive); in experiment [4], > 100 µM (inactive); in experiment [5] it was more than 100 µM. The GI50 is > 100 µM (inactive) in experiment [6]; > 100 µM (inactive) in experiment [7]; 13.8 µM (inactive) in experiment [8]; > 100 µM (inactive) in experiment [9]; > 100 µM (inactive) in experiment [10]; > 100 µM (inactive) in experiment [11]. Further, the GI50 in [12], in [14], in experiment [15], in experiment [16], in experiment [17] and in experiment [18] was > 100 µM (inactive) in each case.

The record behind these values is ChEMBL document CHEMBL1201862, “PubChem BioAssay data set” (2004).
